This note sets out measurements from patent US5208344A, “Naphthalenepropionic acid derivatives as anti-inflammatory/antiallergic agents” (American Home Products Corporation, priority 1991, dated 1993).

Structures can show the parent of a compound that is named as a salt.

The test system of this assay is ovalbumin-induced bronchoconstriction. The assay is described as follows: inhibition of antigen (ovalbumin)-induced bronchoconstriction in anesthetized guinea pigs. It counts as in vivo. The settings on record: orally administered 4 hours before induction; guinea pig; 240 min. The method, then:
The compounds of the invention are tested to measure their in vivo ability to inhibit the bronchoconstriction induced in anesthetized guinea pigs by exogenously administered antigen.
Male Hartley guinea pigs (400-700 gm) are sensitized three weeks prior to antigen (ovalbumin-OA) challenge as follows: each guinea pig is given two intramuscular injections--0.35 ml of Grade V OA, 50 mg/ml, into each hindlimb.
Guinea pigs, fasted overnight but allowed water adlibitum, are anesthetized with 1.2 g/kg of urethane (intraperitoneal). Supplemental does of […] of urethane are administered intraperitoneally as needed. One carotid artery and one jugular vein are cannulated to allow for the monitoring of blood pressure and the administration of drugs, respectively. A duodenal cannula is inserted for intraduodenal dosing studies. The trachea of each animal is cannulated and connected to a Harvard respirator. […] Respiratory overflow pressure is measured from a side arm off the tracheal cannula which is connected via a Gould or Beckman pressure transducer to a suitable strip chart recorder. […]
Test compounds are administered intravenously, perorally, or intraduodenally at appropriate times prior to OA challenge. […] Control experiments are used to determine the effects of solvents on the measured parameters, and test data is corrected for any significant solvent effects.
Bronchoconstriction is assessed as increases in respiratory overflow pressure (cm H2 O). Changes in blood pressure (mm Hg) are also recorded.
Test compound-induced changes in the respiratory overflow pressure are assessed as percent changes from control experiments. […] The net change in overflow pressure is measured 5 minutes after antigen challenge and is calculated as follows. […] The percent change value for the drug treated group versus the control group is calculated as follows: […]

Turning to `C[C@H](C(=O)O)c1ccc2cc(OCc3ccc4ccccc4n3)ccc2c1` [Example 17, S-(α)-α-Methyl-6-(2-quinolinylmethoxy)-2-naphthaleneacetic acid, tromethanime salt], the “ED50 (ovalbumin-induced bronchoconstriction)” value was 7 mg/kg.
